Test results published in the supplement of paper PMC10307832.

Compound: CN1CCC(CC1)OC2=CC(=C(C=C2)NC3=NC=C4C(=N3)N(C(=O)N4C)C5CCCC5)OC [AZ3146] + C[C@@H](Oc1cc(-c2cnn(C3CCNCC3)c2)cnc1N)c1c(Cl)ccc(F)c1Cl [Crizotinib] (partner 1 µM)
Assay: relative viability (nuclei count vs DMSO), 5 days (fraction); higher = more cells survive
Conditions: first compound 8 µM
Procedure, shortened: (§1)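 Lung cancer cell lines in 1536-well plates got either a single drug or a fixed anchor-drug dose together with five library-drug doses (not always all listed) in √10 steps, by pin tool, on the day after seeding. Nuclei were counted after 5 days, and relative viability is the treated-to-vehicle ratio of nuclei counts. Values are medians of duplicate plates.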

Cell Line	relative viability
HCC-366	0.0532
RERF-LC-KJ	0.66
EMC-BAC-2	0.731
LCLC-97TM1	0.304

Compound: CCOC(=O)CCNc1cc(N2CCc3ccccc3CC2)nc(-c2ccccn2)n1 [GSK-J4] + CC(=O)Nc1cccc(-n2c(=O)n(C3CC3)c(=O)c3c(Nc4ccc(I)cc4F)n(C)c(=O)c(C)c32)c1 [Trametinib] (partner 0.02 µM)
Assay: as above
Conditions: first compound 0.5 µM
Procedure, shortened: as §1

Cell Line	relative viability
NCI-H322M	0.513
LC-2-ad	0.847
HCC-827	0.566
HCC-15	0.376
HOP-62	0.39
NCI-H460	0.258
LU99A	0.551
NCI-H2085	0.482
A-427	0.702
NCI-H520	0.625
NCI-H838	0.566
NCI-H1792	0.523
NCI-H596	0.797
NCI-H3122	0.223
BEN	1.1
201T	0.719
NCI-H1993	0.514

Cell Line	relative viability
NCI-H1355	0.371
NCI-H2405	0.586
NCI-H1437	0.478
NCI-H661	0.583
COR-L 105	0.467
H3255	0.656
NCI-H2347	0.25
NCI-H1975	0.356
NCI-H441	0.498
NCI-H1650	0.678
NCI-H1915	0.299
NCI-H2087	0.189
HCC-366	0.354
RERF-LC-KJ	0.85
EMC-BAC-2	0.901
LCLC-97TM1	0.182

Same assay, conditions: first compound 1.581 µM

Cell Line	relative viability
NCI-H322M	0.482
LC-2-ad	0.76
HCC-827	0.58
HCC-15	0.377
HOP-62	0.309
LU99A	0.485
NCI-H2085	0.663
A-427	0.567
NCI-H520	0.486
NCI-H838	0.455
NCI-H1792	0.44
NCI-H596	0.759
NCI-H3122	0.266
BEN	0.883
201T	0.615
NCI-H1993	0.504
NCI-H1355	0.4
NCI-H2405	0.63
NCI-H1437	0.444
NCI-H661	0.582
NCI-H2347	0.273
NCI-H1975	0.262
NCI-H441	0.386
NCI-H1650	0.56
NCI-H1915	0.302
NCI-H2087	0.171
HCC-366	0.319
RERF-LC-KJ	0.845
EMC-BAC-2	0.819
LCLC-97TM1	0.155

Same assay, conditions: first compound 5 µM

Cell Line	relative viability
NCI-H322M	0.623
LC-2-ad	0.835
HCC-827	0.72
HCC-15	0.413
HOP-62	0.334
NCI-H460	0.143
NCI-H2085	0.586
NCI-H520	0.577
NCI-H838	0.223
NCI-H1792	0.468
NCI-H596	0.639
NCI-H3122	0.222
BEN	0.88
201T	0.711
NCI-H1993	0.497
NCI-H1355	0.486
NCI-H1437	0.553
NCI-H661	0.5
COR-L 105	0.46
H3255	0.53
NCI-H2347	0.275
NCI-H1975	0.296
NCI-H441	0.492
NCI-H1650	0.608
NCI-H2087	0.257
RERF-LC-KJ	0.931
LCLC-97TM1	0.168

Same assay, conditions: first compound 15.81 µM

Cell Line	relative viability
NCI-H322M	0.457
LC-2-ad	0.908
HCC-827	0.448
HCC-15	0.298
HOP-62	0.337
NCI-H460	0.0717
LU99A	0.441
NCI-H2085	0.517
A-427	0.559
NCI-H520	0.559
NCI-H838	0.436
NCI-H1792	0.39
NCI-H596	0.725
NCI-H3122	0.273
BEN	0.896
201T	0.735
NCI-H1993	0.544

Cell Line	relative viability
NCI-H1355	0.396
NCI-H2405	0.48
NCI-H1437	0.491
NCI-H661	0.462
COR-L 105	0.458
H3255	0.48
NCI-H2347	0.32
NCI-H1975	0.329
NCI-H441	0.383
NCI-H1650	0.646
NCI-H1915	0.28
NCI-H2087	0.169
HCC-366	0.234
RERF-LC-KJ	0.708
EMC-BAC-2	0.777
LCLC-97TM1	0.128

Same assay, conditions: first compound 50 µM

Cell Line	relative viability
NCI-H322M	0.503
LC-2-ad	0.886
HCC-827	0.513
HCC-15	0.272
HOP-62	0.301
NCI-H460	0.0851
LU99A	0.35
NCI-H2085	0.57
A-427	0.552
NCI-H520	0.472
NCI-H838	0.332
NCI-H1792	0.38
NCI-H596	0.771
NCI-H3122	0.193
BEN	0.917
201T	0.69
NCI-H1993	0.532

Cell Line	relative viability
NCI-H1355	0.327
NCI-H2405	0.749
NCI-H1437	0.29
NCI-H661	0.418
COR-L 105	0.451
H3255	0.541
NCI-H2347	0.285
NCI-H1975	0.264
NCI-H441	0.352
NCI-H1650	0.419
NCI-H1915	0.293
NCI-H2087	0.222
HCC-366	0.21
RERF-LC-KJ	0.66
EMC-BAC-2	0.831
LCLC-97TM1	0.156

Compound: CCOC(=O)CCNc1cc(N2CCc3ccccc3CC2)nc(-c2ccccn2)n1 [GSK-J4] + Nc1ncn([C@H]2C[C@H](O)[C@@H](CO)O2)c(=O)n1 [Decitabine] (partner 2 µM)
Assay: as above
Conditions: first compound 0.5 µM
Procedure, shortened: as §1

Cell Line	relative viability
NCI-H322M	0.687
LC-2-ad	0.746
HCC-827	0.345
HCC-15	0.696
HOP-62	0.257
NCI-H460	0.444
LU99A	0.791
NCI-H2085	0.511
A-427	0.554
NCI-H520	0.51
NCI-H838	0.459
NCI-H1792	0.559
NCI-H596	0.923
NCI-H3122	0.476
BEN	0.762
201T	0.826
NCI-H1993	0.643

Cell Line	relative viability
NCI-H1355	0.354
NCI-H2405	0.719
NCI-H1437	0.574
NCI-H661	0.548
COR-L 105	0.723
H3255	0.619
NCI-H2347	0.584
NCI-H1975	0.401
NCI-H441	0.203
NCI-H1650	0.522
NCI-H1915	0.253
NCI-H2087	0.312
HCC-366	0.33
RERF-LC-KJ	0.624
EMC-BAC-2	1
LCLC-97TM1	0.213

Same assay, conditions: first compound 1.581 µM

Cell Line	relative viability
NCI-H322M	0.687
LC-2-ad	0.803
HCC-827	0.31
HCC-15	0.492
HOP-62	0.233
LU99A	0.725
NCI-H2085	0.501
A-427	0.528
NCI-H520	0.336
NCI-H838	0.363
NCI-H1792	0.472
NCI-H596	1.03
NCI-H3122	0.459
BEN	0.511
201T	0.886
NCI-H1993	0.554
NCI-H1355	0.364
NCI-H2405	0.781
NCI-H1437	0.363
NCI-H661	0.5
NCI-H2347	0.606
NCI-H1975	0.352
NCI-H441	0.279
NCI-H1650	0.343
NCI-H1915	0.235
NCI-H2087	0.218
HCC-366	0.283
RERF-LC-KJ	0.605
EMC-BAC-2	0.862
LCLC-97TM1	0.237

Same assay, conditions: first compound 5 µM

Cell Line	relative viability
NCI-H322M	0.81
LC-2-ad	0.866
HCC-827	0.482
HCC-15	0.581
HOP-62	0.2
NCI-H460	0.411
NCI-H2085	0.512
NCI-H520	0.541
NCI-H838	0.407
NCI-H1792	0.589
NCI-H596	0.906
NCI-H3122	0.454
BEN	0.489
201T	0.847
NCI-H1993	0.388
NCI-H1355	0.342
NCI-H1437	0.564
NCI-H661	0.485
COR-L 105	0.507
H3255	0.593
NCI-H2347	0.57
NCI-H1975	0.323
NCI-H441	0.205
NCI-H1650	0.423
NCI-H2087	0.353
RERF-LC-KJ	0.602
LCLC-97TM1	0.225

Same assay, conditions: first compound 15.81 µM

Cell Line	relative viability
NCI-H322M	0.379
LC-2-ad	0.776
HCC-827	0.292
HCC-15	0.536
HOP-62	0.193
NCI-H460	0.429
LU99A	0.846
NCI-H2085	0.548
A-427	0.523
NCI-H520	0.502
NCI-H838	0.406
NCI-H1792	0.428
NCI-H596	0.773
NCI-H3122	0.345
BEN	0.679
201T	0.831
NCI-H1993	0.6

Cell Line	relative viability
NCI-H1355	0.325
NCI-H2405	0.689
NCI-H1437	0.552
NCI-H661	0.497
COR-L 105	0.644
H3255	0.463
NCI-H2347	0.58
NCI-H1975	0.376
NCI-H441	0.217
NCI-H1650	0.416
NCI-H1915	0.239
NCI-H2087	0.224
HCC-366	0.283
RERF-LC-KJ	0.654
EMC-BAC-2	0.947
LCLC-97TM1	0.262

Same assay, conditions: first compound 50 µM

Cell Line	relative viability
NCI-H322M	0.671
LC-2-ad	0.793
HCC-827	0.31
HCC-15	0.38
HOP-62	0.225
NCI-H460	0.47
LU99A	0.554
NCI-H2085	0.491
A-427	0.434
NCI-H520	0.446
NCI-H838	0.316
NCI-H1792	0.43
NCI-H596	1.02
NCI-H3122	0.415
BEN	0.597
201T	0.875
NCI-H1993	0.507

Cell Line	relative viability
NCI-H1355	0.335
NCI-H2405	0.757
NCI-H1437	0.358
NCI-H661	0.441
COR-L 105	0.654
H3255	0.409
NCI-H2347	0.503
NCI-H1975	0.394
NCI-H441	0.271
NCI-H1650	0.294
NCI-H1915	0.247
NCI-H2087	0.249
HCC-366	0.277
RERF-LC-KJ	0.417
EMC-BAC-2	0.869
LCLC-97TM1	0.215
